Data reported in patent publication US20160272617A1, “SUBSTITUTED PHENYLALANINE DERIVATIVES” (BAYER PHARMA AKTIENGESELLSCHAFT, priority 2013, published 2016).
Where a name gives a salt, the structure may show the parent alone.

Each compound was assayed against T1, human factor XIa (Homo sapiens, UniProt P03951) (assay: Measurement of FXIa inhibition (fluorogenic peptide substrate Boc-Glu(OBzl)-Ala-Arg-AMC)). Details: factor XIa from Kordia, 15 min preincubation, 30 min at 22° C., fluorescence.
T1 construct: purchased Kordia
Format: biochemical
Experimental: The factor XIa inhibition of the inventive substances is determined using a biochemical test system which utilizes the reaction of a peptidic factor XIa substrate to determine the enzymatic activity of human factor XIa. Here, factor XIa cleaves from the peptic factor XIa substrate the C-terminal aminomethylcoumarin (AMC), the fluorescence of which is measured. The determinations are carried out in microtitre plates.
Test substances are dissolved in dimethyl sulphoxide and serially diluted in dimethyl sulphoxide (3000 μM to 0.0078 μM; resulting final concentrations in the test: 50 μM to 0.00013 μM). In each case 1 μl of the diluted substance solutions is placed into the wells of white microtitre plates from Greiner (384 wells). Subsequently, the following are added successively: 20 μl of assay buffer (50 mmol/l Tris buffer pH 7.4; 100 mmol/l sodium chloride; 5 mmol/l calcium chloride; 0.1% bovine serum albumin) and 20 μl of factor XIa from Kordia (0.45 nM in assay buffer). After 15 min of incubation, the enzyme reaction is started by addition of 20 μl of the factor XIa substrate Boc-Glu(OBzl)-Ala-Arg-AMC dissolved in assay buffer (10 μM in assay buffer) from Bachem, the mixture is incubated at room temperature (22° C.) for 30 min and fluorescence is then measured (excitation: 360 nm, emission: 460 nm). The measured emissions of the test mixtures with test substance are compared to those of control mixtures without test substance (only dimethyl sulphoxide instead of test substance in dimethyl sulphoxide), and the IC50 values are calculated from the concentration/activity relationships.

T1 sequence (P03951 388-625 limits assumed): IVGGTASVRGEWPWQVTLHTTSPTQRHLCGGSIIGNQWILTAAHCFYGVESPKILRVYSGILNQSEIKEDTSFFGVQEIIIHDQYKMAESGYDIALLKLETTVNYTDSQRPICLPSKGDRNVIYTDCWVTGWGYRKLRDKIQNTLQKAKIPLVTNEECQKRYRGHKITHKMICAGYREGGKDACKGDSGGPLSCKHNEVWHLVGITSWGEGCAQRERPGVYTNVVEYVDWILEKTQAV
T1 sequence (P03951 19-387 partner limits assumed): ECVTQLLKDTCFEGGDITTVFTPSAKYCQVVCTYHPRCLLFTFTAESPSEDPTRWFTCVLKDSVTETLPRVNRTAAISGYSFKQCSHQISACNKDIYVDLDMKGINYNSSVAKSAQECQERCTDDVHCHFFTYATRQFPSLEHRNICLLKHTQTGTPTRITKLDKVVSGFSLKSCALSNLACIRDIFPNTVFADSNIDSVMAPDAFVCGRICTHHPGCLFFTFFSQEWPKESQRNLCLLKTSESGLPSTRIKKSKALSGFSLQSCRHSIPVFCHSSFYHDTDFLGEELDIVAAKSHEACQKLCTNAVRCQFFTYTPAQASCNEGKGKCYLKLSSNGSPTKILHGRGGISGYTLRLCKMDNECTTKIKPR

SMILES | IC50 [nM]
Cc1cc(C(=O)N[C@H]2CC[C@H](O)CC2)ccc1-c1ccc(C[C@H](NC(=O)[C@H]2CC[C@H](CN)CC2)C(=O)Nc2ccc(-c3nnc(C(F)(F)C(F)(F)C(=O)O)[nH]3)cc2)cc1 (single isomer, unassigned; enantiomer 1) [Example 168] | 0.5
Cc1cc(C(=O)N[C@H]2CC[C@H](O)CC2)ccc1-c1ccc(C[C@@H](NC(=O)[C@H]2CC[C@H](CN)CC2)C(=O)Nc2ccc(-c3nnc(C(F)(F)C(F)(F)C(=O)O)[nH]3)cc2)cc1 (single isomer, unassigned; enantiomer 2) [Example 105] | 65
Cc1cc(C(=O)N[C@@H]2CCCCNC2=O)ccc1-c1ccc(C[C@H](NC(=O)[C@H]2CC[C@H](CN)CC2)C(=O)Nc2ccc(-c3nn[nH]n3)cc2)cc1 [Example 64, 4′-[(2S)-2-({[trans-4-(Aminomethyl)cyclohexyl]carbonyl}amino)-3-oxo-3-{[4-(2H-tetrazol-5-yl)phenyl]amino}propyl]-2-methyl-N-[(3R)-2-oxoazepan-3-yl]biphenyl-4-carboxamide hydrochloride] | 1.6
Cc1cc(C(=O)NC(CN(C)C)CN(C)C)ccc1-c1ccc(C[C@H](NC(=O)[C@H]2CC[C@H](CN)CC2)C(=O)Nc2ccc(-c3nn[nH]n3)cc2)cc1 [Example 66, 4′-[(2S)-2-({[trans-4-(Aminomethyl)cyclohexyl]carbonyl}amino)-3-oxo-3-{[4-(2H-tetrazol-5-yl)phenyl]amino}propyl]-N-[1,3-bis(dimethylamino)propan-2-yl]-2-methylbiphenyl-4-carboxamide hydrochloride] | 29
COc1cc(C(=O)NC2CCC(N(C)C)CC2)ccc1-c1ccc(C[C@H](NC(=O)[C@H]2CC[C@H](CN)CC2)C(=O)Nc2ccc(-c3nn[nH]n3)cc2)cc1 (stereo partly drawn) [Example 67, 4′-[(2S)-2-({[trans-4-(Aminomethyl)cyclohexyl]carbonyl}amino)-3-oxo-3-{[4-(2H-tetrazol-5-yl)phenyl]amino}propyl]-N-[4-(dimethylamino)cyclohexyl]-2-methoxybiphenyl-4-carboxamide hydrochloride] | 4.6
Cc1cc(C(=O)NC2CCC(N(C)C)CC2)ccc1-c1ccc(C[C@H](NC(=O)[C@H]2CC[C@H](CN)CC2)C(=O)Nc2ccc3c(=O)[nH][nH]c3c2)cc1 (stereo partly drawn) [Example 68, 4′-{(2S)-2-({[trans-4-(Aminomethyl)cyclohexyl]carbonyl}amino)-3-oxo-3-[(3-oxo-2,3-dihydro-1H-indazol-6-yl)amino]propyl}-N-[4-(dimethylamino)cyclohexyl]-2-methylbiphenyl-4-carboxamide hydrochloride] | 8.3
COc1cc(C(=O)N[C@@H]2CCNC2)ccc1-c1ccc(C[C@H](NC(=O)[C@H]2CC[C@H](CN)CC2)C(=O)Nc2ccc(-c3nn[nH]n3)cc2)cc1 [Example 71, 4′-[(2S)-2-({[trans-4-(Aminomethyl)cyclohexyl]carbonyl}amino)-3-oxo-3-{[4-(2H-tetrazol-5-yl)phenyl]amino}propyl]-2-methoxy-N-[(3R)-pyrrolidin-3-yl]biphenyl-4-carboxamide hydrochloride] | 7.4
Cc1cc(C(=O)N[C@H]2CCCN(C)C2)ccc1-c1ccc(C[C@H](NC(=O)[C@H]2CC[C@H](CN)CC2)C(=O)Nc2ccc(-c3nn[nH]n3)cc2)cc1 [Example 73, 4′-[(2S)-2-({[trans-4-(Aminomethyl)cyclohexyl]carbonyl}amino)-3-oxo-3-{[4-(2H-tetrazol-5-yl)phenyl]amino}propyl]-2-methyl-N-[(3S)-1-methylpiperidin-3-yl]biphenyl-4-carboxamide hydrochloride] | 3.4
Cc1cc(C(=O)NC2CCCNC2=O)ccc1-c1ccc(C[C@H](NC(=O)[C@H]2CC[C@H](CN)CC2)C(=O)Nc2ccc(-c3nc(C(F)F)n[nH]3)cc2)cc1 (stereo partly drawn) [Example 74, 4′-[(2S)-2-({[trans-4-(Aminomethyl)cyclohexyl]carbonyl}amino)-3-({4-[3-(difluoromethyl)-1H-1,2,4-triazol-5-yl]phenyl}amino)-3-oxopropyl]-2-methyl-N-(2-oxopiperidin-3-yl)biphenyl-4-carboxamide hydrochloride] | 1.3

Continued, values first:

IC50 [nM] | SMILES
41 | Cc1cc(C(=O)NC2CCNCC2)ccc1-c1ccc(C[C@H](NC(=O)[C@H]2CC[C@H](CN)CC2)C(=O)Nc2ccc(-c3nnc(CC(C)C)[nH]3)cc2)cc1 [Example 58, 4′-[(2S)-2-({[trans-4-(Aminomethyl)cyclohexyl]carbonyl}amino)-3-{[4-(3-isobutyl-4H-1,2,4-triazol-5-yl)phenyl]amino}-3-oxopropyl]-2-methyl-N-(piperidin-4-yl)biphenyl-4-carboxamide hydrochloride]
2.9 | CNC(=O)c1ccc(-c2ccc(C[C@H](NC(=O)[C@H]3CC[C@H](CN)CC3)C(=O)Nc3ccc(-c4nn[nH]n4)cc3)cc2)c(C)c1 [Example 19, 4′-[(2S)-2-({[trans-4-(Aminomethyl)cyclohexyl]carbonyl}amino)-3-oxo-3-{[4-(2H-tetrazol-5-yl)phenyl]amino}propyl]-N,2-dimethylbiphenyl-4-carboxamide]
2.5 | Cc1cc(C(=O)N[C@@H]2CCNC2)ccc1-c1ccc(C[C@H](NC(=O)[C@H]2CC[C@H](CN)CC2)C(=O)Nc2ccc(-c3nc(C(F)(F)C(F)(F)F)n[nH]3)cc2)cc1 [Example 75, 4′-[(2S)-2-({[trans-4-(Aminomethyl)cyclohexyl]carbonyl}amino)-3-oxo-3-({4-[3-(pentafluoroethyl)-1H-1,2,4-triazol-5-yl]phenyl}amino)propyl]-2-methyl-N-[(3R)-pyrrolidin-3-yl]biphenyl-4-carboxamide hydrochloride]
2.4 | Cc1cc(C(=O)N2CCS(=O)(=O)CC2)ccc1-c1ccc(C[C@H](NC(=O)[C@H]2CC[C@H](CN)CC2)C(=O)Nc2ccc(-c3nn[nH]n3)cc2)cc1 [Example 69, trans-4-(Aminomethyl)-N-[(2S)-3-{4′-[(1,1-dioxidothiomorpholin-4-yl)carbonyl]-2′-methyl-biphenyl-4-yl}-1-oxo-1-{[4-(2H-tetrazol-5-yl)phenyl]amino}propan-2-yl]cyclohexanecarboxamide hydrochloride]
2 | Cc1cc(C(=O)NC2CCNCC2)ccc1-c1ccc(C[C@H](NC(=O)[C@H]2CC[C@H](CN)CC2)C(=O)Nc2ccc(-c3nn[nH]n3)cc2)cc1 [Example 1, 4′-[(2S)-2-({[trans-4-(Aminomethyl)cyclohexyl]carbonyl}amino)-3-oxo-3-{[4-(2H-tetrazol-5-yl)phenyl]amino}propyl]-2-methyl-N-(piperidin-4-yl)biphenyl-4-carboxamide hydrochloride]
1.8 | Cc1cc(C(=O)NC2CCC(O)C2)ccc1-c1ccc(CC(NC(=O)C2CCC(CN)CC2)C(=O)Nc2ccc(-c3nnn[nH]3)c(F)c2)cc1 [Example 92, 4′-[(2S)-2-({[trans-4-(Aminomethyl)cyclohexyl]carbonyl}amino)-3-{[3-fluoro-4-(2H-tetrazol-5-yl)phenyl]amino}-3-oxopropyl]-N-(3-hydroxycyclopentyl)-2-methylbiphenyl-4-carboxamide hydrochloride]
1.6 | Cc1cc(C(=O)NC2CCC(N(C)C)CC2)ccc1-c1ccc(C[C@H](NC(=O)[C@H]2CC[C@H](CN)CC2)C(=O)Nc2ccc(-c3nn[nH]n3)cc2)cc1 (stereo partly drawn) [Example 70, 4′-[(2S)-2-({[trans-4-(Aminomethyl)cyclohexyl]carbonyl}amino)-3-oxo-3-{[4-(2H-tetrazol-5-yl)phenyl]amino}propyl]-N-[4-(dimethylamino)cyclohexyl]-2-methylbiphenyl-4-carboxamide hydrochloride]

These compounds were tested on human and animal plasma (assay: Determination of anticoagulatory activity: activated partial thromboplastin time (aPTT) in plasma). Details: concentration of test substance which brings about a 1.5-fold extension of the aPTT; plasma species not given.
Experimental: The anticoagulatory activity of the test substances is determined in vitro in human and animal plasma (for example mouse, rat, rabbit, pig and dog plasma). To this end, blood is drawn off in a mixing ratio of sodium citrate/blood of 1:9 using a 0.11 molar sodium citrate solution as receiver. Immediately after the blood has been drawn off, it is mixed thoroughly and centrifuged at about 4000 g for 15 minutes. The supernatant is pipetted off.
The activated partial thromboolastin time (aPTT) is determined in the presence of varying concentrations of test substance or the corresponding solvent using a commercial test kit (C. K. Prest from Diagnostica Stago). The test compounds are incubated with the plasma and the PTT reagent (cephalin, kaolin) at 37° C. for 3 minutes. Coagulation is then started by addition of a 25 mM aqueous calcium chloride solution, and the time when coagulation occurs is determined. The concentration of test substance which brings about a 1.5-fold extension of the aPTT is determined.

SMILES | aPTT [µmol/L]
Cc1cc(C(=O)N[C@H]2CC[C@H](O)CC2)ccc1-c1ccc(CC(NC(=O)[C@H]2CC[C@H](CN)CC2)C(=O)Nc2ccc(-c3nnc(C(F)(F)C(F)(F)C(=O)O)[nH]3)cc2)cc1 (mixture of isomers) [Example 131, 3-[5-(4-{[2-({[trans-4-(Aminomethyl)cyclohexyl]carbonyl}amino)-3-{4′-[(trans-4-hydroxycyclohexyl)carbamoyl]-2′-methylbiphenyl-4-yl}propanoyl]amino}phenyl)-4H-1,2,4-triazol-3-yl]-2,2,3,3-tetrafluoropropanoic acid (enantiomer mixture)] | 0.2
